Data on 2 molecules can be found in US5354676A, “Recombinant modified thermostable NAD-dependent dehydrogenases and process for their production” (The University of Bristol, priority 1989, dated 1994).

In test [1] the target is T1, Bacillus stearothermophilus NAD-dependent L-lactate dehydrogenase, wild type (WT) (Geobacillus stearothermophilus, UniProt P00344).
T1 construct: made in house; host or cells: E. coli
As to the kind of experiment: biochemical. Conditions: pH 6, read-out: stimulation in kcat/Km by FBP.
Description: (§1) Steady-state reaction rates were determined by following the change in A340 due to the consumption of NADH. […] The buffer for all experiments was 100rmM triethanolamine-HC1/NaOH,pH 6.

For test [2], the target named is T2, Bacillus stearothermophilus L-lactate dehydrogenase variant MVS (102-5 QKP→MVS) (Geobacillus stearothermophilus, UniProt P00344, K87V/P88S/Q86M).
T2 construct: made in house; host or cells: E. coli TG2, vector pKK223-3
T2 sequence (P00344 whole entry Q86M/K87V/P88S): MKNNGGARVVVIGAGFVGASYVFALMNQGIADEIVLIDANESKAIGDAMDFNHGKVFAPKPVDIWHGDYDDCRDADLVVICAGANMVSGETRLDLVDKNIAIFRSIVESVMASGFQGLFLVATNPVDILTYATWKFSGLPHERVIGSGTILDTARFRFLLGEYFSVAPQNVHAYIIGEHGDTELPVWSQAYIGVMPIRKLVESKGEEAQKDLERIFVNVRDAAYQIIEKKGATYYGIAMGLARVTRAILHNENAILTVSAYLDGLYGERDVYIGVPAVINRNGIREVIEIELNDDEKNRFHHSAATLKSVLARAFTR
As to the kind of experiment: biochemical. As to conditions: pH 6, read-out: stimulation in kcat/Km by FBP.
Description: as §1

Test [3] deals with T3, Bacillus stearothermophilus L-lactate dehydrogenase variant MVS/GG (102-5 QKP→MVS and 235-6 AA→GG) (Geobacillus stearothermophilus, UniProt P00344, A222G/A223G/K87V/P88S/Q86M).
T3 construct: made in house; host or cells: E. coli TG2, vector pKK223-3
T3 sequence (P00344 whole entry Q86M/K87V/P88S/A222G/A223G, the tested form may be a part): as the sequence (P00344 whole entry Q86M/K87V/P88S) above, with A222G, A223G counted along it
As to the kind of experiment: biochemical.
Description: as §1

Test [4] addresses T4, Bacillus stearothermophilus L-lactate dehydrogenase variant GG (235-6 AA→GG) (Geobacillus stearothermophilus, UniProt P00344, A222G/A223G). As to the kind of experiment: biochemical. Conditions: pH 6, read-out: stimulation in kcat/Km by FBP.
Description: as §1
The target of test [5] is T4, Bacillus stearothermophilus L-lactate dehydrogenase variant GG (235-6 AA→GG). Conditions: No FBP, pH 6.
Description: as §1

By Km is commonly meant the substrate concentration at which the rate is half of its maximum.

T4 sequence (P00344 whole entry A222G/A223G, the tested form may be a part): as the sequence (P00344 whole entry Q86M/K87V/P88S) above, with M86Q, V87K, S88P, A222G, A223G counted along it
T1 sequence (P00344 whole entry): as the sequence (P00344 whole entry Q86M/K87V/P88S) above, with M86Q, V87K, S88P counted along it

As for `O=C(COP(=O)(O)O)[C@@H](O)[C@H](O)[C@H](O)COP(=O)(O)O` [FBP, fructose-1,6-bisphosphate], the fold induction at 5000 µM came to 50 in test [1]; 100 in test [2]; 16 in test [3] (pH 6, read-out: stimulation in kcat/Km by FBP); 60 in test [4].

For `CC(=O)C(=O)O` [Pyruvate], the Km in test [3] (MVS/GG, No FBP, pH 6) is above 50 mM; in test [5], above 50 mM.
